SMILES strings stand for the structures. Counter-ions that a name gives are not always drawn.

Test [1] deals with hydroxymethyldihydropteridine pyrophosphokinase (HMPPS) (Escherichia coli, UniProt P26281). Description: Inhibition of the enzymes of dihydropteroate biosynthesis (ATP-γ-P32 transfer assay for HMPPS; dihydropteroate-C14 formation for synthetase). In kind it is biochemical. As to conditions: enzymes from E. coli extract; tests (a) HMPPS and (b) synthetase of Example 5; read-out: concentration giving 50% inhibition. Here is the method: The inhibiting activity against HMPPS of a selected compound of formula (I) can, for instance, be tested by monitoring the transfer of the terminal phosphate of adenosine triphosphate ATP-γ-P^32 to `dihydropteridine`. […] Such inhibition may, for instance, be easily and simply carried out by incubating an extract of E. coli with pAB-7-C^14, ATP, Mg and `dihydropteridine`. The formation of the dihydropteroate-C^14 can be quantitatively assayed after separating the unreated pAB substrate, for instance by chromatography. […] Preferably the value is 25 μM or less, such as in the range between […]. Generally a value below 7μM is desirable. […]
Sequence of hydroxymethyldihydropteridine pyrophosphokinase (HMPPS) (P26281 whole entry): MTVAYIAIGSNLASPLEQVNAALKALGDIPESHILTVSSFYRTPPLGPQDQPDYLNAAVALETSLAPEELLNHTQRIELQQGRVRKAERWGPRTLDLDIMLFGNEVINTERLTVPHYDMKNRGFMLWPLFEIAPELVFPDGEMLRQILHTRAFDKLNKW
phosphate of ATP-γ-P^32 to Pt could be monitored and correlated […]
Tubes 1 to 9 containing the amounts of components shown in the Table, were filled up to 200μl with distilled water, incubated for 60 minutes at 37° C and then chilled on ice. […] The charcoal and the filter were then radioactively counted.
The radioactive count from the contents of tubes 2 and 3 was taken as the maximum count, since these tubes contained no test compound and thus gave 0% enzyme inhibition. The percentage inhibition produced by the contents of the remaining tubes could then be calculated by relating their radioactive count to the maximum, as determined above. […]

A further test concerns Cl. perfringens. The note with it: disclosed in British Pat. No. 1303171 and Application No. 36289/70; cited from earlier work.
The next test relates to Derm. dermatonomous. As to conditions: disclosed in British Pat. No. 1303171 and Application No. 36289/70; cited from earlier work.

With `CC1(C)Nc2nc(N)nc(O)c2N=C1CBr` [2-Amino-4-hydroxy-6-bromomethyl-7,7-dimethyl-7,8-dihydropteridine hydrobromide], in test [1], the IC50 is 5 µM.
Take `CC1(C)Nc2nc(N)nc(O)c2N=C1CO` [2-amino-4-hydroxy-6-hydroxymethyl-7,7-dimethyl-7,8-dihydropteridine]: the bacteriostatic activity entry in the test on Cl. perfringens and with Derm. dermatonomous was “particularly effective” in each case.
Regarding `CC1=Nc2c(O)nc(N)nc2NC1(C)C` [2-amino-4-hydroxy-6-methyl-7,7-dimethyl-7,8-dihydropteridine], the bacteriostatic activity result in the test on Cl. perfringens and with Derm. dermatonomous was “particularly effective” in each case.
Turning to `CC1(C)Nc2nc(N)nc(O)c2N=C1C(Br)Br` [the 6-dibromomethyl analogue, 2-Amino-4-hydroxy-6-dibromomethyl-7,7-dimethyl-7,8-dihydropteridine hydrobromide], the IC50 in test [1] was determined as 25 µM.

Values taken from US4036961A (priority 1972, dated 1977).
